Results as given in patent US9073858B2, “Methods of targeted drug development” (priority 2010, dated 2015).
Where two headings read alike, the source gives them in different places.

Experiments:
[1] = biological target: T1, EGFR (Homo sapiens, UniProt P00533); assay: EGFR in-cell Western (ICW) screening protocol; type: cell-based; parameters: unit not given here; conditions: for ICW Screen: initial screen
T1 construct: endogenous in cells; host or cells: A431 cells (ATCC CRL-1555)
Procedure: The following example describes general EGFR in-cell Western (ICW) screening protocol.
Two cell plates were prepared for each compound plate.
Serum Starvation: The cells were serum starved prior to compound addition. […] The cell plates were incubated at 37° C./5% CO2 for 2 hours.
Prepared compound plates were stored at RT prior to use and at 4° C. long term.
Compound Dilution Plate Preparation: 250 μl of DMEM supplemented with 1 mg/ml BSA (Sigma A3059-10G) was added to the appropriate wells of a 96 well plate to prepare the compound dilution plates. Using a multichannel pipettor, 1.25 μl of compound from the compound plate was transferred into the compound dilution plate.
Compound Addition: The starve media was removed from the cell plates by aspiration. Using a multichannel pipettor, the compound dilution plates were mixed by pipetting up and down three times. 50 μl of mixed, diluted compound was added to each of two rows/columns on each of two cell plates. The cell plates with compound were incubated at 37° C./5% CO2 for 4 hours.
50 μl of 20 or 0 ng/ml EGF was added to the appropriate wells without the removal of compound. The compound and EGF were mixed by pipetting up and down three times.
The plates were incubated at RT for 20 min without shaking. The Fixation Solution was removed by aspiration and the plates washed four times with 200 μl each of Triton Wash Solution (1×PBS, Sigma P3813-10PK, and 0.1% Triton X-100, T8787-50ML) for 5 min with gentle shaking.
The block was removed by aspiration and 50 μl of diluted primary Ab mix was added. The plates were incubated at 4° C. overnight with gentle shaking. The plates were washed five times with 200 μl of PBST (1×PBS, Sigma P3813-10PK, and 0.1% Tween-20, Sigma P9416-50ML) for 5 min each with shaking. 50 μl of diluted secondary Ab mix was added and the plates incubated at RT for 1 h with shaking. The plates were washed 5× with 200 μl of PBST for 5 min each with shaking. One final wash with 200 μl of PBS (Sigma P3813-10PK) for 5 min with shaking was performed prior to scanning.
In some screening assays, the dilution of the secondary Ab conjugates was 1/800 rather than 1/1200.
Plate Scanning: The plates were scanned on an Odyssey Infrared Imaging System from LI-COR Biosciences. The focus offset was set at 3.5 mm and the scanning intensity set at 3 for the 700 channel and 7 for the 800 channel.
Data Analysis: The % of Maximum and % Inhibition values were calculated as follows. 700 Channel=signal for total EGFR (used to control for variation in cell number). 800 Channel=signal for phosphorylated EGFR. 800−EGF=basal level EGFR phosporylation+non-specific signal (no compound). 800+EGF=800−EGF+EGF dependent EGFR receptor phosphorylation (no compound). 700/800com=700 or 800 channel signals with compound. % Maximum={[(800com/700com)−(800−EGF/700−EGF)]/[(800+EGF/700+EGF)−(800−EGF/700−EGF)]}×100%. % Inhibition=100%−(% Maximum).

[2] = test system: MDBK line; assay: MTT Cell Proliferation Assay, MDBK line; type: cell-based, bovine
Description: (§1) The following example describes the MTT Cell Proliferation Assay.
(§2) The MTT Cell Proliferation Assay is a colorimetric assay system that measures the reduction of the tetrazolium salt MTT (3-(4,5-dimethylthiazol-2-yl)-2,5-diphenyltetrazolium bromide) into insoluble formazan crystals, produced by the mitochondria of viable cells. […] The color can then be quantified by spectrophotometric means. Among the applications for the method are drug sensitivity, cytotoxicity, response to growth factors, and cell activation. The reduction of tetrazolium salts is now recognized as a safe, accurate alternative to radiometric testing.
(§3) Two replicates on each cell plate and 2 duplicate plates gave 4 individual replicates of each concentration, in each cell line. Concentrations were diluted in 100% DMSO from 25 mM stocks.
(§4) Twelve 96 well plates of each cell line were plated. Plating was done by dislodging cells as in passage protocol, counting on a hemocytometer, re-suspending in standard growth media, and plating using a multichannel pippetor.
(§5) 16 μl of 25 mM stock+34 μl DMSO=8 mM starting concentrations, and serial diluted as with test compounds in same plate. […] Two replicates of each concentrations was run on each cell plate. All compound addition and cell treatments were done using aseptic technique under a laminar flow aseptic hood.
(§6) Control: 0.5% DMSO in treatment media was used as the control.
(§7) MTT dye (Thiazolyl Blue Tetrazolium Bromide, Sigma cat # M5655) stock was prepared in bulk and stored at 4° C. for use: 5 mgs/ml sterile PDS, shielded from light. 4 ul of this stock per 100 uls treatment media per well was used.
(§8) Plates were incubated overnight prior to treatment, with treatment day=Day 0. Compound treatments were prepared prior to washing cells to minimize time cells were dry at room temperature after final aspiration. Compounds were diluted in 100% DMSO in 96 well polypropylene plates:40 μl 25 mM stock+10 μl DMSO=20 mM; 20 μl of 20 mM+30 μl DMSO=8 mM; 20 μl of 8 mM+30 μl DMSO=3.2 mM; 20 μl of 3.2 mM+30 μl DMSO=1.3 mM; 20 μl of 1.3 mM+30 μl DMSO=0.51 mM.
(§9) 5.0 μl/ml were added to treatment media, in sterile, 2.2 ml deep well plates=0.5% dmso final. Ten μl of each dmso concentration was added to 2.0 ml of treatment media and then mixed using a 1200 μl multichannel pipettor. Cell plates were treated from the deep well plates. Treatment media was standard growth media containing 0.5% FBS and standard additions. This reduced FBS concentration allowed for a slower growth rate in cells.
(§10) Media was aspirated from cell plates, and washed with 200 μl/well sterile PBS. Aspirated PBS wash, and cell plates were treated with 200 μl of compound/treatment media per well, and incubated at 37° C., 5% CO2 for 3 days.
(§11) Prior to harvesting, visual observations were made under an inverted microscope. Plates were harvested by: aspirating the growth media; adding back MTT dye/100 μl treatment media; and incubating plates at 37° C. for 1 hour. MTT dye was aspirated. 100 μl/well dmso was added, and then shaken on a Bellco plate shaker for 5 minutes, at 4.5 setting.
(§12) Plates were read in a Tecan Sunrize UV plate reader, at 560 nm. Settings: Read mode, Outside Normal 2 sec; Shake settle time 3 sec. Data is reported as % inhibition, calculated for individual plates using control values from that plate.

[3] = test system: epithelial carcinoma A431 cell line; assay: MTT Cell Proliferation Assay, A431 cell line; type: cell-based; conditions: for MTT-72 h A431/MDBK (ratio) / MTT (10 Point follow-up) ratio: value in brackets; for MTT-72 h A431/MDBK (ratio): numerically MDBK value over A431 value; for MTT (10 Point follow-up) ratio: numerically MDBK over A431
Description: as §1, §2, §3, §4, §5, §6, §7, §8, §9, §10, §11, §12

[4] = Bos taurus, MDBK, 72 h, second value of A431/MDBK pair, read-out: MTT-72 h MDBK
[5] = Homo sapiens, A-431, 72 h, 72 h, first value of A431/MDBK pair, read-out: MTT-72 h A431
[6] = Bos taurus, MDBK, 10 point follow-up, second value of pair, read-out: MTT (10 Point follow-up) MDBK
[7] = Homo sapiens, A-431, 10 point follow-up, first value of pair, read-out: MTT (10 Point follow-up) A431

T1 sequence (P00533 25-1210): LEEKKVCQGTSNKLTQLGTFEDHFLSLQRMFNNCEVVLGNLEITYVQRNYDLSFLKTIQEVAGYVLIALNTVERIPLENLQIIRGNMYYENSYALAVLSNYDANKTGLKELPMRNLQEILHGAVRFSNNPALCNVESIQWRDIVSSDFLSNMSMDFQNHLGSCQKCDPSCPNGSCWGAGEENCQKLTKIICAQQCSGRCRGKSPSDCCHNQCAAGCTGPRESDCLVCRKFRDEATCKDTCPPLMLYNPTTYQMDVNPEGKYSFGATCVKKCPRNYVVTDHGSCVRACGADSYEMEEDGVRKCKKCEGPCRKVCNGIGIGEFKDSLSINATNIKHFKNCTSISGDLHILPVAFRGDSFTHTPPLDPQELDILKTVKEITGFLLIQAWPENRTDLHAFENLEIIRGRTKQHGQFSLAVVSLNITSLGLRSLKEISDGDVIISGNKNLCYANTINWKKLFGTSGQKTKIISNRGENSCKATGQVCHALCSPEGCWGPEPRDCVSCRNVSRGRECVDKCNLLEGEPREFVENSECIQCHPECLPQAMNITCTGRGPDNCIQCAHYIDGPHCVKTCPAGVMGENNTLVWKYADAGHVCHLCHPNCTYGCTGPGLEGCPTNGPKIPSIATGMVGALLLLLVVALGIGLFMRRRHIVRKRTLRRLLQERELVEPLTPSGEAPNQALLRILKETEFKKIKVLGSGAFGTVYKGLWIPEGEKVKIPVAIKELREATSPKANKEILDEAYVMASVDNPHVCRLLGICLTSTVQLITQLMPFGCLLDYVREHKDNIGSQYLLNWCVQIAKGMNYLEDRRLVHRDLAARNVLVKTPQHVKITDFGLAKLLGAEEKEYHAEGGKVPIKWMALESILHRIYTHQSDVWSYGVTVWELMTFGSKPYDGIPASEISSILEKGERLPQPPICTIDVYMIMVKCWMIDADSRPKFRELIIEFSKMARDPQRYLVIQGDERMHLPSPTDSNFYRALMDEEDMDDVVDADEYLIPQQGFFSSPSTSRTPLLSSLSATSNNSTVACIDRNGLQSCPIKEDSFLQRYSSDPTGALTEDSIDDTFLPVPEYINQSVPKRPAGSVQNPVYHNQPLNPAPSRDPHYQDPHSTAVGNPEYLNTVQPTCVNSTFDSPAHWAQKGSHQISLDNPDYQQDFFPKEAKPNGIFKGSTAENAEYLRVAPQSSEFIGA

Row | ICW Screen [1] | ICW Re-Test [1] | IC50 ([3]; 72 h, first value of A431/MDBK pair, read-out: MTT-72 h A431) [µM] | IC50 [3, 5] [µM] | IC50 [3, 7] [µM] | SMILES | IC50 ([2]; 72 h, second value of A431/MDBK pair, read-out: MTT-72 h MDBK) [µM] | MTT-72 h A431/MDBK (ratio) ([3]; 72 h) | IC50 [2, 4] [µM] | IC50 [2, 6] [µM] | MTT (10 Point follow-up) ratio [3] | MTT-72 h % Max ([3]; 72 h, maximal effect printed after the ratio) [%]
1 | 54.34 | 38.77 | 4.83 |  |  | CCOc1ccc(NC(c2ccccn2)c2ccc3cccnc3c2O)cc1 (stereo not shown) [compound 1073] | 7.41 | 1.53 |  |  |  | 
2 | 46.48 | 20.95 |  | 7.14 |  | CCOc1cc(C(Nc2ccccn2)c2ccc3cccnc3c2O)ccc1OC (stereo not shown) [compound 1968] |  | 0.86 | 6.15 |  |  | 
3 | 29.61 | 39.58 |  | 15 |  | COc1ccc(C(Nc2cc(C)ccn2)c2ccc3cccnc3c2O)cc1OC (stereo not shown) [compound 1969] |  | 0.90 | 13.6 |  |  | 
4 | 26.33 |  |  | 39.7 |  | Cc1ccc2ccc(C(Nc3ccccn3)c3cccc(O)c3)c(O)c2n1 (stereo not shown) [compound 1970] |  | 0.81 | 32.4 |  |  | 
5 | 54.76 | 53.31 |  | 14.2 |  | COc1cc(C(Nc2cc(C)ccn2)c2ccc3cccnc3c2O)ccc1O (stereo not shown) [compound 1973] |  | 0.53 | 7.5 |  |  | 
6 | 26.91 |  |  | 26.2 |  | CCOc1ccc(C(Nc2ccccn2)c2ccc3ccc(C)nc3c2O)cc1OC (stereo not shown) [compound 1976] |  | 0.50 | 13 |  |  | 
7 | 63.53 | 41.95 |  | 7.3 |  | COc1ccc(C(Nc2cc(C)ccn2)c2ccc3cccnc3c2O)cc1O (stereo not shown) [compound 1978] |  | 1.47 | 10.7 |  |  | 
8 | 27.02 |  |  | 5.69 |  | COc1ccc(C(Nc2ccccn2)c2ccc3ccc(C)nc3c2O)cc1C (stereo not shown) [compound 1979] |  | 0.95 | 5.38 |  |  | 
9 | 47.06 | 30.75 |  | 9.08 |  | CCOc1cc(C(Nc2cc(C)ccn2)c2ccc3cccnc3c2O)ccc1OC (stereo not shown) [compound 1991] |  | 0.79 | 7.14 |  |  | 
10 | 29 |  |  | 46.8 |  | Cc1ccc2ccc(C(Nc3ccccn3)c3ccc(O)cc3)c(O)c2n1 (stereo not shown) [compound 1997] |  | 0.52 | 24.3 |  |  | 
11 | 43.76 | 33.76 |  | 3.44 | 3.45 | COc1ccc(C(Nc2cc(C)ccn2)c2ccc3cccnc3c2O)cc1C (stereo not shown) [compound 10005] |  | 1.07 | 3.69 | 4.14 | 1.20 | 
12 | 35.13 | 45.57 |  | 11 |  | COc1ccc(C(Nc2ccccn2)c2ccc3ccc(C)nc3c2O)cc1OC (stereo not shown) [compound 10006] |  | 1.37 | 15.1 |  |  | 
13 | 61.2 | 62.77 |  | 3.56 | 3.53 | CCOc1ccc(C(Nc2ccccn2)c2ccc3cccnc3c2O)cc1O (stereo not shown) [compound 10013] |  | 1.80 | 6.42 | 6.32 | 1.79 | 
14 | 25.99 |  |  |  | 3.31 | Cc1cccc(NC(c2ccccc2F)c2ccc3cccnc3c2O)n1 (stereo not shown) [compound 10015] |  |  |  | 3.28 | 0.99 | 
15 | 41.45 | 29.99 |  | 25.8 |  | Cc1ccnc(NC(c2ccc(O)cc2)c2ccc3ccc(C)nc3c2O)c1 (stereo not shown) [compound 10016] |  | 1.00 | 25.8 |  |  | 
16 | 44.27 | 30.11 |  | 3.72 | 3.52 | CCOc1ccc(C(Nc2cc(C)ccn2)c2ccc3cccnc3c2O)cc1OC (stereo not shown) [compound 10017] |  | 0.94 | 3.51 | 2.98 | 0.85 | 
17 | 33.75 |  |  | 5.35 | 4.49 | Cc1ccccc1C(Nc1ccccn1)c1ccc2cccnc2c1O (stereo not shown) [compound 10019] |  | 0.98 | 5.25 | 3.21 | 0.71 | 
18 | 37.03 | 41.06 |  | 5.22 |  | Cc1cccc(NC(c2ccccc2C)c2ccc3ccc(C)nc3c2O)n1 (stereo not shown) [compound 10026] |  | 0.97 | 5.19 |  |  | 
19 | 30.12 |  |  | 5.69 |  | CCCOc1ccc(C(Nc2ccccn2)c2ccc3cccnc3c2O)cc1 (stereo not shown) [compound 10028] |  | 0.95 | 5.38 |  |  | 
20 | 40.02 | 35.03 |  | 6.46 |  | Cc1ccnc(NC(c2cc(C)ccc2O)c2ccc3cccnc3c2O)c1 (stereo not shown) [compound 10029] |  | 0.84 | 5.42 |  |  | 
21 | 100.4 | 99.05 |  |  |  | Cc1ccnc(NC(c2ccc3cccnc3c2O)c2sccc2C)c1 (stereo not shown) [compound 10963] |  | 1.98 |  |  |  | 40
